Where “and” joins values, the source holds several entries; their conditions need not be identical. Identical values can stand only once.
How the values were obtained:
[1] = Storage test over 30 days, NBPT loss on treated granulated urea (HPLC analysis); type: physicochemical; settings: active compound applied to urea
Description: In a further storage test over 30 days at 30° C. and an atmospheric humidity of 60%, the NBPT losses measured (HPLC analysis) were as indicated below. At the beginning of the storage test, the NBPT was applied in a concentration of 0.12% by weight, based on the fertilizer, in a solution having the composition indicated below. The carrier fertilizer used was granulated urea.

Chinese cabbage = settings: in vivo

stabilizing action on the active compound [1]	Compound	Fresh mass of shoots 21 days after planting (Chinese cabbage)
no stabilizing action	CN1CCCC1=O [N-methylpyrrolidone (NMP), N-methylpyrrolidone]	–
–	NC(N)=O [Urea]	14.3 g/pot and 20.05 g/pot and 11.65 g/pot

Source: patent US20110154874A1, “MIXTURE FOR THE TREATMENT OF UREA-CONTAINING FERTILIZERS” (FERTIVA GmbH, priority 2007, published 2011)
